This is an account of results in patent US20230285598A1, “SULFOXONIUM YLIDE DERIVATIVES AS PROBES FOR CYSTEINE PROTEASE” (Takeda Pharmaceutical Company Limited, priority 2018, published 2023).

For assay [1], the target named is T1, cathepsin X (Mus musculus, UniProt Q9WUU7). Nature of the assay: Probe labeling of kidney lysates, in-gel fluorescence. It is filed as biochemical. The following applies: 0.1-5 µM for 20 minutes. As for the experimental part: issues were harvested from healthy mice and snap frozen. At the time of analysis, lysis buffer was added at 10x volume:weight, and tissues were sonicated on ice. Cleared lysates were labeled with the indicated probe and analyzed as above.
T1 sequence (Q9WUU7 64-306): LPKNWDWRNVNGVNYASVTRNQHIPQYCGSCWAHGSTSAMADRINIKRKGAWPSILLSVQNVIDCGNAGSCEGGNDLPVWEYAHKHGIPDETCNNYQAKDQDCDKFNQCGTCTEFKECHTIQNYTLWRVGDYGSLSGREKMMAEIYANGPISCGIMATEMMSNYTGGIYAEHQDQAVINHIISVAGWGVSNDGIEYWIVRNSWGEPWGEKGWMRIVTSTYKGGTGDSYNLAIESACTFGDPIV
In Example 7, sulfoxonium ylide probes as prepared in accordance with Example 1 were tested in kidney lysates and the results compared to BMV109. The sulfoxonium ylide probes (and BMV109) were each added with increasing probe concentrations of 0.1 µM, 0.5 µM, 1 µM and 5 µM for 20 minutes.

Assay [2] concerns the target T1, cathepsin X. Nature of the assay: In vivo probe labeling in mice (intravenous), tissues analyzed by fluorescent SDS-PAGE. As for the experimental part:
For in vivo labeled tissues, mice were first injected intravenously via the tail vein with sCy5-Nle-SY, BMV109, or sCy5-Nle-AOMK (50 nmol in 100 µl 10% DMSO/PBS or vehicle control). Tissues were harvested and analyzed as above except without further probe addition.
In Example 10, the probe sCy5-Nle-SY, vehicle control/no probe (NP) or BMV109 were injected into mice intravenously. After two hours of circulation, tissues were harvested, lysed, and analyzed for probe labeling by fluorescent SDS-PAGE.
In Example 12, the AOMK probe sCy5-Nle-AOMK was tested in vivo and its labeling in tissues was analyzed. The probe was injected into mice intravenously. After two hours of circulation, tissues were harvested, lysed, and analyzed for probe labeling by fluorescent SDS-PAGE.

The target in assay [3] is T1, cathepsin X. Nature of the assay: Probe labeling of RAW264.7 cell lysates, SDS-PAGE in-gel fluorescence. The format is biochemical. Set-up: protein lysates prepared from RAW264.7 cells; host or cells: RAW264.7. Particulars: Example 6; 0.01-5 µM for 20 minutes. The procedure:
ells were harvested by scraping, washed once with PBS, and resuspended in lysis buffer containing 50 mM citrate [pH 5.5], 0.5% CHAPS, 0.1% Triton X-100, and 4 mM DTT. Cells were incubated on ice for at least 10 minutes with intermittent vortexing followed by centrifugation ([…] at 4° C. or 5 minutes). Cleared supernatants were then transferred to a fresh tube and protein concentration was determined by BCA. Total protein (50 µg) was aliquoted into tubes in a final volume of 20 µl lysis buffer. Where indicated, JPM-OEt or MDV-590 were added from a 100x DMSO stock and incubated at 37° C. or 20 minutes prior to probe addition. The indicated concentration of probe was added from a 100x DMSO stock. Labeling was carried out at 37° C. or 20 minutes (unless otherwise indicated), and the reactions were quenched by the addition of 5x sample buffer (200 mM Tris-Cl [pH 6.8], 8% SDS, 0.04% bromophenol blue, 5% b-mercaptoethanol, and 40% glycerol). Samples were then boiled for five minutes and proteins were resolved on a 15% SDS-PAGE gel. The gels were scanned on a Typhoon 5 flatbed laser scanner at 633/670 nm excitation/emission to detect sCy5 fluorescence.
robe-labeled lysate from above (in sample buffer) was divided into input or pulldown (~50 µg total protein each). The input sample was stored at -20° C. The pulldown sample was diluted in 500 µl IP buffer (PBS [pH 7.4],[…], 1 mM EDTA). Goat anti-cathepsin X antibody (10 µl) was added along with 40 µl slurry of pre-washed Protein A/G agarose beads. Samples were rotated overnight at 4° C. Beads were then washed four times with IP buffer followed by a final wash in 0.9% NaCl. Beads were then resuspended in 2x sample buffer and boiled. The pulldown supernatants, alongside the input samples, were analysed by fluorescent SDS-PAGE as above.
In Example 3, the sulfoxonium ylide probe sCy5-Val-SY was incubated with protein lysates prepared from RAW264.7 cells, an immortalized mouse macrophage line that contains high levels of active cysteine cathepsins (Verdoes et al., 2013). Cells were lysed in citrate buffer (pH 5.5) to provide optimal conditions for cathepsin activation, and the probe was added • at 1 µM for 20 minutes • at various concentrations (0 µM, 0.01 µM, 0.05 µM, 0.1 µM, 0.5 µM or 1 µM) for 20 minutes; or • at 1 µM for varying times (0, 1, 2, 5, 10, 20, and 30 minutes).
Then the lysates were resolved by SDS-PAGE and the gel scanned for sCy5 fluorescence using a flatbed laser scanner.
The labeling profile of sCy5-Val-SY was compared to that of BMV109, the pan-cathepsin probe, by repeating the above experiment using BMV109 as the probe added at 1 µM for 20 minutes.
In Example 6, a small library of sulfoxonium ylide probes with varying amino acids in the P1 position as prepared in accordance with Example 1 was tested in RAW264.7 lysates, and compared to BMV109. Each probe was added with increasing probe concentrations of 0.01 µM, 0.05 µM, 0.1 µM, 0.5 µM, 1 µM and 5 µM for 20 minutes).

The target of assay [4] is T1, cathepsin X. Nature of the assay: Probe labeling of living RAW264.7 cells, in-gel fluorescence. It is filed as cell-based. More on the design: protein lysates prepared from RAW264.7 cells; host or cells: RAW264.7. The following applies: Example 8; 0.1-5 µM for 2 hours. As for the experimental part: AW cells or MDA-MB-231 ^HM cells were plated in 12-well plates. Where indicated, MDV-590 or vehicle was added at 10 µM from a 10 mM DMSO stock for overnight incubation. When the cell density reached 80%, the indicated probes were added at the indicated concentrations from a 1000x DMSO stock and allowed to incubate for the indicated time. Media was then removed and replaced with PBS. The cells were then scraped and transferred to tubes, and lysis and SDS-PAGE analysis were carried out as above, except skipping the probe addition step. […]
In Example 8, sulfoxonium ylide probes as prepared in accordance with Example 1 were applied to live RAW264.7 cells for two hours, in order to examine the potency and permeability of the sulfoxonium ylide probe series in living cells, and the results compared to BMV109.
The sulfoxonium ylide probes (and BMV109) were each added with increasing probe concentrations of 0.1 µM, 0.5 µM, 1 µM and 5 µM for 2 hours. […]

Setting [5] is: intravenous 50 nmol, two hours of circulation.

Entries after “also recorded” stand apart in the source; their conditions may differ.

In the case of `CCCC[C@H](NC(=O)CCCCCN1/C(=C/C=C/C=C/C2=[N+](CC)c3ccc(S(=O)(=O)[O-])cc3C2(C)C)C(C)(C)c2cc(S(=O)(=O)O)ccc21)C(=O)C=S(C)(C)=O` [sCy5-Nle-SY], the “potency and specificity of labeling in kidney lysates” value in assay [1] is “the most potency and specificity for cathepsin X”. Moreover, in assay [2] (setting [5]), the “labeling of cathepsin S, B and L in tissues after in vivo administration” value is on record as “some labeling of cathepsin S was also observed; also recorded: does not label cathepsin B or L”; the “labeling of cathepsin X in tissues after in vivo administration” value is “Labeling of cathepsin X was observed in liver, kidney, colon, stomach, and spleen”. The “overall specificity profile in vivo” value in assay [2] (intravenous, two hours, compared to BMV109) is recorded as “clearly improved compared to BMV109”. In addition, the “potency of labeling in RAW264.7 lysates” value in assay [3] is given as “the most potent”. The “cathepsins labeled in live RAW264.7 cells” value in assay [4] is “labeled cathepsin X and S to similar extents and with similar potency”.
